System: subjects with relapsing remitting multiple sclerosis (RRMS)
Experiment: ALLEGRO phase III trial: MRI endpoints (lesions, brain volume, MTR, 1H-MRS)
Type: in vivo, human
Set-up: key to BA from M12 to M24: percent change of brain volume (SIENA); Change in average MTR of T2 visible lesions / T2 volume / Hypointense T1 volume / GdE volume: unit not given here
Settings: for BA at month 12, reduction / BA (brain atrophy, percent brain volume change) at month 12: baseline to 12 months
Method: Eligible subjects were equally randomized 1:1 into one of the following treatment arms: • 1. […] 21, 2007 (see, page 10, line 5 to page 11, line 3). • 2. Matching placebo for laquinimod arm: one capsule is administered once daily. MRI related secondary endpoints were the cumulative number of GdE lesions at months 12 and 24; and the cumulative number of new T2 lesions (relative to previous scan) at months 12 and 24; MRI exploratory endpoints included percent change of brain volume using SIENA.^10 Additional MRI methodological details are as follows: In all patients, MRI scans were performed at 0, 12, and 24 months. Before a site could enrol study participants they were required to image a volunteer patient with definite MS twice with repositioning according to a strict study imaging protocol using scanners with a minimum field strength of 1.5T. Fast/turbo spin echo (repetition time [TR]=2200-3500 ms, echo time [TE]=14-50/90-120 ms, echo train length=2-7, slice thickness=3 mm, and contiguous axial slices= • 44) sequences were used to obtain proton density and T2-weighted images. High resolution pre-contrast 3D T1-weighted sequences (TR=8-15 ms, TE=3-5 ms, inversion time=1.1 s, number of slices 160, slice thickness 1.2 mm, flip angle [FA]=10-15, orientation sagittal) were acquired for quantification of brain atrophy. Finally, T1-weighted images (1.5 T scanners: conventional spin echo sequence; TR=600-650 ms, TE=10-20 ms, slice thickness=3 mm, and contiguous axial slices=44; 3.0 T scanners: 3D sequence; TR=5-9 ms, TE=2-5 ms, FA=15, slice thickness=3 mm, and contiguous axial slices=44) were obtained 5 minutes after injection of 0.1 mmol/kg of gadolinium. A series of axial, coronal, and sagittal images was obtained to create an axial reference scan for subsequent careful repositioning of each patient at the follow-up session. Axial slices were positioned to run parallel to a line joining the most inferioanterior and inferioposterior parts of the corpus callosum. Image quality was reviewed at the MRI-AC using predetermined criteria. The identification of GdE and T2-hyperintense lesions was done by consensus of two experienced observers. The number of total and new GdE lesions and new/enlarging T2-hyperintense lesions were counted. The identified lesions were then outlined by trained technicians using a semiautomated segmentation technique based on local thresholding (Jim 4.0; […] System, Leicester, UK) and lesion volumes were calculated automatically. Percentage brain volume changes and cross-sectional normalized brain volumes were measured on […] T1-weighted images, with Structural Image Evaluation of Normalized Atrophy (SIENA) software and a cross-sectional method ([…]) (available from the FMRIB Software Library, Oxford University, Oxford, UK; http://www.fmrib.ox.ac.uk/analysis/research/[…]). Analyses of the secondary MRI endpoints of the cumulative number of GdE and new/enlarging T2 lesions at 12 and 24 months involved a baseline-adjusted negative binomial regression with an “offset” employing the log of the relative exposure to adjust for early-terminated patients. The model included as covariates the number of enhancing lesions at baseline, and country or geographical region. In the case of new/enlarging T2 lesion analysis, the baseline T2 lesion volume was also added. […] The analysis of the brain atrophy endpoint involved a baseline-adjusted analysis of covariance (ANCOVA). The covariates were the number of GdE lesions at baseline and the country or region. The exploratory endpoints were all analyzed at a significance level of 5%. Secondary endpoints of the ALLEGRO trial included disease activity as measured by MRI, including counts of Gadolinium enhancing T1 lesions and new-T2 hyperintense lesions. […] Conventional MRI scans for new T1 hypointense lesions, and brain volume using SIENA were performed at baseline, 12 and 24 months. […]

[1] = 0.6 mg daily oral vs placebo, listed as laquinimod
[2] = 0.6 mg daily oral, listed as laquinimod
[3] = post-hoc, not naïve, vs placebo

## CCN(C(=O)c1c(O)c2c(Cl)cccc2n(C)c1=O)c1ccccc1 [Laquinimod, laquinimod]
0.6 mg daily oral
  Cumulative new Hypointense T1 lesions months 12 + 24, mean: 1.468
  Cumulative number of GdE lesions at months 12 and 24, mean: 1.332
  Cumulative number of GdE lesions at months 12 and 24, median: 0.00
  Cumulative number of new/enlarging T2 lesions at 12 and 24 months, mean: 5.032
  BA (brain atrophy, percent brain volume change) at month 12: −0.358%
0.6 mg daily oral vs placebo
  Cumulative new Hypointense T1 lesions months 12 + 24, reduction: 27% reduction
  Cumulative number of new/enlarging T2 lesions at 12 and 24 months, reduction: 30% reduction
  Percent change of brain volume baseline to month 24, reduction in brain atrophy: 32.8% reduction
  Percent change of brain volume from baseline to month 24, adjusted mean difference: 0.426
  BA at month 12, reduction: 53% reduction
[1]
  BA at month 12, reduction: 51.7%
  Cumulative new Hypointense T1 lesions months 12 + 24, reduction: 26.7%
  Cumulative number of new/enlarging T2 lesions at 12 and 24 months, reduction: 30%
  Percent change of brain volume baseline to month 24, reduction in brain atrophy: 32.8%
0.6 mg daily oral, SIENA
  Percent change of brain volume from baseline to month 24, adjusted mean change: −0.871%
[2]
  BA (brain atrophy, percent brain volume change) at month 12: −0.358%
  Cumulative new Hypointense T1 lesions months 12 + 24, mean: 1.47
1H-MRS subgroup, n=12
  Adjusted mean change in NAA/Cr from baseline to month 24: 0.087
MT MRI subgroup, n=43
  Change in average MTR of T2 visible lesions: −0.005
MT MRI subgroup, n=44
  Change in mean MTR whole brain from baseline to last observed value (LOV): +0.045
MT MRI subgroup, p=0.0180
  Change in mean MTR whole brain baseline to LOV, difference from placebo: 0.483
MT MRI subgroup, p=0.1007
  Change in average MTR of T2 visible lesions, difference from placebo: 0.330
Baseline to month 24
  Hypointense T1 volume, change BL to M24: 7%^
  T2 volume, change BL to M24: 11.5%^
Month 12
  Hypointense T1 volume: 2.805
  T2 volume: 8.005
Month 12, vs placebo
  Hypointense T1 volume, effect: ~1%
  T2 volume, effect: 5%
Month 24
  Hypointense T1 volume: 2.829
  T2 volume: 8.111
Month 24, vs placebo
  Hypointense T1 volume, effect: ~1%
  T2 volume, effect: 5%
post-hoc
  BA for pts with all scans, change BL to M12: −0.337
  BA for pts with all scans, change BL to M24: −0.855
  BA from M12 to M24: −0.548
post-hoc, GdE = 0
  % BV change M24: −0.859%
post-hoc, GdE = 0, vs placebo
  % BV change M24, reduction: 30% reduction
post-hoc, GdE > 0
  % BV change M24: −0.881%
post-hoc, GdE > 0, vs placebo
  % BV change M24, reduction: 37% reduction
post-hoc, M12
  GdE counts: 0.731
  GdE lesion free: 69% ^
  GdE volume: 1.058
  New T2 lesion #: 2.81
  New-T1 Hypointense Lesions: 1.074
  T1 Hypointense Lesion free: 56.3% ^
  T2 lesion free: 30.8% ^
post-hoc, M12, vs placebo
  GdE counts, reduction: 36% reduction
  GdE lesion free, effect on odds: 49% odds
  GdE volume, effect: 4.5%
  New T2 lesion #, effect: 33.5%
  New-T1 Hypointense Lesions, reduction: 27% reduction
  T1 Hypointense Lesion free, effect on odds: 28% odds
  T2 lesion free, effect on odds: 39% odds
post-hoc, M24
  GdE counts: 0.482
  GdE lesion free: 74.5% ^
  GdE volume: 1.045
  New T2 lesion #: 4.45
  New-T1 Hypointense Lesions: 1.230
  T1 Hypointense Lesion free: 52.8% ^
  T2 lesion free: 20.3% ^
post-hoc, M24, vs placebo
  GdE counts, reduction: 39% reduction
  GdE lesion free, effect on odds: 72% odds
  GdE volume, effect: 4.7%
  New T2 lesion #, effect: 31.5%
  New-T1 Hypointense Lesions, reduction: 32% reduction
  T1 Hypointense Lesion free, effect on odds: 47% odds
  T2 lesion free, effect on odds: 40% odds
post-hoc, MRI free NO
  % BVC BL to M24: −1.001%
post-hoc, MRI free NO, vs placebo
  % BVC BL to M24, effect: 65.5%
post-hoc, MRI free YES
  % BVC BL to M24: −0.533%
post-hoc, MRI free YES, vs placebo
  % BVC BL to M24, effect: 45.5%
post-hoc, naïve
  % BV change by previous medications: −0.82%
  Cum # T1 GdE by previous medications: 1.135
  Cum New T2 by previous medications: 4.967
  T1 hypointense by previous medications: 1.585
post-hoc, naïve, vs placebo
  % BV change by previous medications, reduction: 38% reduction
  Cum # T1 GdE by previous medications, reduction: 42% reduction
  Cum New T2 by previous medications, reduction: 33% reduction
  T1 hypointense by previous medications, reduction: 28% reduction
post-hoc, not naive
  Cum # T1 GdE by previous medications: 1.746
post-hoc, not naive, vs placebo
  Cum # T1 GdE by previous medications, reduction: 32% reduction
post-hoc, not naïve
  % BV change by previous medications: −0.954%
  Cum New T2 by previous medications: 5.075
  T1 hypointense by previous medications: 1.217
[3]
  % BV change by previous medications, reduction: 23% reduction
  Cum New T2 by previous medications, reduction: 24% reduction
  T1 hypointense by previous medications, reduction: 25% reduction
post-hoc, vs placebo
  BA for pts with all scans, change BL to M12, effect: 60%
  BA for pts with all scans, change BL to M24, effect: 57%

— patent US20120142730A1 (priority 2010, published 2012)
